Reference: patent publication US5081234A, “4'-demethylepipodophyllotoxin glycosides” (Bristol-Myers Squibb Co., priority 1990, dated 1992)
Converted amounts (≈) assume the structure as drawn.

Key:
[1] = tested on: Murine melanoma B16-F10 cells; experiment: In vitro cytotoxicity vs B16-F10 (72 h, neutral red staining); assay type: cell-based; details: Mus musculus, neutral red at 540 nm
Protocol: Murine melanoma B16-F10 cells were grown and maintained at 37° C. under a humidified atmosphere in a 5% CO2 incubator in Eagle's MEM medium (Nissui) containing kanamycin (60 μg/ml), and supplemented with heat inactivated fetal calf serum (10%) and non-essential amino acids (0.6%). For in vitro cytotoxicity experiments, exponentially growing B16-F10 cells were harvested, counted, and suspended in the culture medium at the concentration of 2.0×10^4 cells/ml. Twenty-four hours after planting cell suspension (180 μl ) into wells of a 96-well microtiter plate, test materials (20 μl) were added to the wells and the plates were incubated for 72 hours. The cytotoxic activity against B16-F10 cells was colorimetrically determined at 540 nm after staining viable cells with neutral red solution.

[2] = tested on: murine P388 lymphocytic leukemia; experiment: In vivo antitumor activity against murine P388 lymphocytic leukemia; set-up: species or system mice (female CDF1); details: median survival time treated/control; P388 i.p. day 0, i.p. once on day 1 (Q1D×1), observed 45 days; maximum T/C, at dose (mg/kg): D 30, E 120, F 60, G 120, H 30, I 10, K 10, Etoposide 120; >125% considered significant
Protocol: Representative compounds of the present invention were evaluated against murine P388 lymphocytic leukemia. Female CDF1 mice were inoculated with 1.0×10^6 of leukemia cells intraperitoneally (day 0), and test materials were intraperitoneally administered to mice once on day 1 (Q1D×1). […] The median survival time (MST) of each group was recorded, and antitumor activity was expressed as T/C % values calculated by the following equation:
T/C%=(MST of treated.div.MST of control)×100

COc1cc([C@@H]2c3cc4c(cc3[C@@H](O[C@@H]3O[C@H](CO)[C@@H](O)[C@H]3O)[C@H]3COC(=O)[C@H]23)OCO4)cc(OC)c1O [Compound D, 4'-Demethyl-4-O-(β-D-ribofuranosyl)epipodophyllotoxin]
IC50 [1]: 18 µg/mL (≈ 33.8 µM) | Antitumor Activity vs P388, Max % T/C [2]: 130%

COc1cc([C@@H]2c3cc4c(cc3[C@@H](O[C@@H]3OC[C@@H](OC(C)=O)[C@@H](OC(C)=O)[C@H]3OC(C)=O)[C@H]3COC(=O)[C@H]23)OCO4)cc(OC)c1O [Compound E, 4'-Demethyl-4-O-(2,3,4-tri-O-acetyl-β-D-ribopyranosyl)epipodophyllotoxin]
IC50 [1]: 4 µg/mL (≈ 6.07 µM) | Antitumor Activity vs P388, Max % T/C [2]: 171%

COc1cc([C@@H]2c3cc4c(cc3[C@@H](O[C@@H]3OC[C@@H](O)[C@@H](O)[C@H]3O)[C@H]3COC(=O)[C@H]23)OCO4)cc(OC)c1O [Compound F, 4'-Demethyl-4-O-(β-D-ribopyranosyl)epipodophyllotoxin]
IC50 [1]: 1 µg/mL (≈ 1.88 µM) | Antitumor Activity vs P388, Max % T/C [2]: 181%

COc1cc([C@@H]2c3cc4c(cc3[C@@H](O[C@@H]3OC[C@H]5OC(C)O[C@H]5[C@H]3O)[C@H]3COC(=O)[C@H]23)OCO4)cc(OC)c1O (stereo partly drawn) [Compound G, 4'-Demethyl-4-O-(3,4-O-ethylidene-β-D-ribopyranosyl)epipodophyllotoxin]
IC50 [1]: 2.5 µg/mL (≈ 4.48 µM) | Antitumor Activity vs P388, Max % T/C [2]: 152%

COc1cc([C@@H]2c3cc4c(cc3[C@@H](O[C@@H]3OC[C@@H](O)[C@H](O)[C@H]3O)[C@H]3COC(=O)[C@H]23)OCO4)cc(OC)c1O [Compound H, 4'-Demethyl-4-O-(β-D-xylopyranosyl)epipodophyllotoxin]
IC50 [1]: 0.53 µg/mL (≈ 0.995 µM) | Antitumor Activity vs P388, Max % T/C [2]: 150%

COc1cc([C@@H]2c3cc4c(cc3[C@@H](O[C@H]3OC[C@@H](O)[C@H](O)[C@H]3O)[C@H]3COC(=O)[C@H]23)OCO4)cc(OC)c1O [Compound I, 4'-Demethyl-4-O-(α-D-xylopyranosyl)epipodophyllotoxin]
IC50 [1]: 2.3 µg/mL (≈ 4.32 µM) | Antitumor Activity vs P388, Max % T/C [2]: 140%

COc1cc([C@@H]2c3cc4c(cc3[C@@H](O[C@H]3OC[C@@H](O)[C@@H](O)[C@@H]3O)[C@H]3COC(=O)[C@H]23)OCO4)cc(OC)c1O [Compound K, 4'-Demethyl-4-O-(α-D-arabinopyranosyl)epipodophyllotoxin]
IC50 [1]: 28 µg/mL (≈ 52.6 µM) | Antitumor Activity vs P388, Max % T/C [2]: 125%

COc1cc([C@@H]2c3cc4c(cc3[C@@H](O[C@@H]3O[C@@H]5CO[C@@H](C)O[C@H]5[C@H](O)[C@H]3O)[C@H]3COC(=O)[C@H]23)OCO4)cc(OC)c1O [Etoposide, reference compound]
IC50 [1]: 0.21 µg/mL (≈ 0.357 µM)
